Laboratory results from PubChem BioAssay (NCI).
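Growth conditions: 96-well plates. Treatment: test compound, 48 hours, 5 concentrations. Analysis: linear interpolation between bracketing concentrations; unreached endpoints set to highest concentration. Abbreviation: GI50, concentration required for 50% inhibition of growth. Definition used: TGI = concentration required for complete inhibition of growth.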

Legend:
Assay in all cases: NCI anticancer screen, dose series, 48 h
HOP-62 NSCLC = tested on: HOP-62 NSCLC
SK-MEL-5 melanoma = tested on: SK-MEL-5 melanoma
MOLT-4 leukemia = tested on: MOLT-4 leukemia
LOX IMVI melanoma = tested on: LOX IMVI melanoma
UACC-257 melanoma = tested on: UACC-257 melanoma
SK-OV-3 ovarian = tested on: SK-OV-3 ovarian
T-47D breast = tested on: T-47D breast
SF-268 CNS = tested on: SF-268 CNS

Row | Compound | GI50 (HOP-62 NSCLC) | TGI (HOP-62 NSCLC) | GI50 (SK-MEL-5 melanoma) | TGI (SK-MEL-5 melanoma) | GI50 (MOLT-4 leukemia) | TGI (MOLT-4 leukemia) | GI50 (LOX IMVI melanoma) | TGI (LOX IMVI melanoma) | GI50 (UACC-257 melanoma) | TGI (UACC-257 melanoma) | GI50 (SK-OV-3 ovarian) | TGI (SK-OV-3 ovarian) | GI50 (T-47D breast) | TGI (T-47D breast) | GI50 (SF-268 CNS) | TGI (SF-268 CNS)
1 | Oc1c(CN2CCN(c3ccccc3F)CC2)cc(Br)c2cccnc12 | 0.596 µM | 14.2 µM | 0.616 µM | > 21.4 µM | 0.743 µM | 5.92 µM | 0.676 µM | 10.3 µM | 2.06 µM | 24.1 µM | 1.45 µM | 27.9 µM | 0.565 µM | 60.5 µM | 0.858 µM | > 100 µM
2 | COc1ccc2c(c1)C(=O)c1c-2c(NCCN(C)C)nc2ccccc12 | 14.3 µM | 27.4 µM | 6.47 µM | 19.7 µM | 0.291 µM | 1.15 µM | 2.01 µM | 11.6 µM | 4.6 µM | 17.5 µM |  |  | 14.8 µM | 34.6 µM | 2.97 µM | 15.5 µM
3 | O=S(=O)(Nc1ccccn1)c1ccc(N=Nc2ccc(O)c3ncccc23)cc1 | 1.14 µM | 8.88 µM | 0.683 µM | 1.63 µM | 1.37 µM | > 23.9 µM | 0.735 µM | 16 µM | 1.39 µM | 8.02 µM | 1.7 µM | 6.59 µM | 2.98 µM | 8.7 µM | 1.12 µM | 50.7 µM
4 | COc1ccc(C2CC(=O)c3c(O)c(OC)c(OC)c(OC)c3O2)cc1O (centres undefined) | 0.377 µM | > 100 µM | 0.219 µM | 6.87 µM | 0.105 µM | > 100 µM | 0.0701 µM | > 100 µM |  |  | 0.371 µM | > 100 µM | 19.2 µM | 77.9 µM | 0.407 µM | > 100 µM
5 | CSC1(CC(=O)N2CCCCC2)C(=O)Nc2ccccc21 (centres undefined) |  | > 100 µM |  | > 100 µM |  | > 100 µM |  | > 100 µM |  | > 100 µM |  | > 100 µM |  | > 100 µM |  | > 100 µM
6 | C[C@@H]1OCC2(CCN(c3cnc(Sc4ccnc(N)c4Cl)c(N)n3)CC2)[C@@H]1N | 14.2 µM | > 100 µM | > 93.3 µM | > 100 µM | > 90.9 µM | > 100 µM | > 100 µM | > 100 µM | > 100 µM | > 100 µM | 1.04 µM | > 100 µM | 46.3 µM | > 100 µM | 27.7 µM | > 100 µM
7 | COc1ccc(C(c2cc3c(cc2O)OCO3)N2CCOCC2)cc1OC (centres undefined) |  | 29.1 µM |  | 26.3 µM |  | 80.8 µM |  | 16.5 µM |  | 34.1 µM |  | 28.7 µM |  | 45.8 µM |  | 25.5 µM
8 | Nc1ccc(-c2ccc(-c3nc4cc(Cl)c(Cl)cc4[nH]3)cc2)cc1 | 11.7 µM | > 50.5 µM | 1.42 µM | > 100 µM | 1.66 µM | > 85 µM | 0.0361 µM | > 25.8 µM | 1.38 µM | > 60.7 µM | > 79.9 µM | > 100 µM | 0.275 µM | > 100 µM |  | 9.24 µM
9 | CC(C)c1ccc2nc3ccc(C(=O)NCCN4CCN(c5ccccc5)CC4)cn3c(=O)c2c1 |  | > 100 µM |  | 7.81 µM |  |  |  |  |  | > 100 µM |  | > 100 µM |  |  |  | > 100 µM
10 | O=c1ccnc(SCc2ccc(Cl)cc2)[nH]1 |  | > 100 µM |  | > 100 µM |  | > 100 µM |  | > 100 µM |  | > 100 µM |  | > 100 µM |  | > 100 µM |  | > 100 µM
11 | CC(CN)[C@@H]1CC[C@]2(CO)CC[C@]3(C)[C@H](CC[C@@H]4[C@@]5(C)CCC(N)C(C)(C)[C@@H]5CC[C@]43C)[C@@H]12 (some centres undefined) | 1.84 µM | 3.55 µM | 1.67 µM | 3.08 µM |  |  | 1.66 µM | 3.33 µM | 1.85 µM | 3.28 µM | 1.86 µM | 3.29 µM | 1.84 µM | 3.99 µM | 1.65 µM | 3.29 µM
12 | Nc1c2ccccc2nc2ccccc12 (tested in a mixture with another compound) | 1.54 µM | 4.01 µM | 1.6 µM | 3.01 µM | 2.32 µM | 13.1 µM | 1.87 µM | 5.94 µM | 1.87 µM | 4.48 µM | 2.39 µM | 10.5 µM | 1.87 µM | 5.98 µM | 2.13 µM | 6.08 µM
13 | O=C(C=Nc1ccccc1C(=O)[O-])c1cccs1.O=C(C=Nc1ccccc1C(=O)[O-])c1cccs1.[Zn+2] |  | > 100 µM |  |  |  | > 100 µM |  | 71.5 µM |  | 43 µM |  | 37.9 µM |  |  |  | 79.8 µM
14 | Nc1nc(-c2ccccc2)cc(-c2ccc(Cl)cc2)c1-c1nc2ccccc2o1 | 22.4 µM | 37.8 µM | 12.8 µM | 25.4 µM | 5 µM | 20.3 µM | 6.04 µM | 18.4 µM | 19.5 µM | 35.1 µM | 15.9 µM | 30.7 µM | 4.21 µM | 27.3 µM | 10.9 µM | 27.7 µM
15 | COC1=C(OC)[C@]2(OC)c3c(O)c(OC)c4c(c3O[C@@]23O[C@@H](c2ccccc2)CC=C3C1=O)[C@@H](O)C[C@H](c1ccccc1)O4 | 1.54 µM | 3.2 µM | 1.32 µM | 2.6 µM | 0.0852 µM | 0.354 µM | 0.157 µM | 0.377 µM | 1.01 µM | 2.36 µM | 1.76 µM | 3.45 µM | 0.224 µM | 0.621 µM | 0.311 µM | 1.35 µM
16 | C/C(=C\c1ccn(-c2ccc(N)cc2F)n1)[C@@H]1C[C@@H]2O[C@]2(C)CCC[C@H](C)[C@H](O)[C@@H](C)C(=O)C(C)(C)[C@@H](O)CC(=O)O1 | 0.0384 µM | > 50 µM | 0.0199 µM |  | 0.0286 µM | > 21.8 µM | 0.0241 µM | > 50 µM | > 50 µM | > 50 µM | 0.172 µM | > 50 µM | 0.0605 µM | > 50 µM | 0.0822 µM | > 50 µM
17 | COc1cc(N2CCC(N3CCN(C)CC3)CC2)ccc1Nc1ncc(Cl)c(Nc2ccccc2S(=O)(=O)C(C)C)n1 | 0.414 µM | 7.98 µM | 1.37 µM | 2.67 µM | 0.809 µM | 5.71 µM | 0.332 µM | 1.47 µM | 1.23 µM | 2.58 µM | 1.83 µM | 4.02 µM | 1.59 µM | 3.55 µM | 0.813 µM | 2.44 µM
